Bounds are passed on as bounds.

Data set [1] has as its system carrageenan-induced mouse paw edema. Briefly: Carrageenan-induced mouse paw edema. It is filed as in vivo. The conditions noted are these: for inhibition in vivo at 300 µmol/kg: Mus musculus, ip, 0.30 mmol/kg i.p., 3.5 h after carrageenan, mean of 6 animals, read-out: % Edema Reduction; for improvement in anti-inflammatory activity: compared to parent flufenamic acid (g) or flufenamol (h). The protocol:
In vivo anti-inflammatory activity of the synthesized compounds was evaluated as mouse paw edema reduction. Paw edema was induced by subcutaneous injection of a 2% carrageenan suspension in the right paw of mice, the left serving as the control. The activity of the tested compounds (at 0.30 mmol/kg of body weight, i.p.), expressed as % reduction in paw edema 3.5 h after carrageenan injection, is shown in Table 2. […] Moreover, compounds 9 and 10 (antioxidant derivatives of mefenamic acid) caused a 1.5–2-fold improvement in edema reduction compared to that of the parent mefenamic acid (i).
For the in vivo anti-inflammatory activity, Wistar male rats or C57BL/6 mice were injected with 0.025 mL carrageenan (2% w/v solution in saline) i.d. into the right hind paw, with the left paw serving as the control. The test compounds (300 μmol/kg) were given, i.p., after the carrageenan injection, and 3.5 h later, the produced edema was estimated as the paw weight increase. Results are expressed as percentage of the reduction in paw edema and are the means for six animals (per compound).
In general terms: The carrageenan paw model is a standard test of acute inflammation.

The target of data set [2] is T1, soybean lipoxygenase (LOX-3) (Glycine max, UniProt P09186).
T1 sequence (P09186 1-857): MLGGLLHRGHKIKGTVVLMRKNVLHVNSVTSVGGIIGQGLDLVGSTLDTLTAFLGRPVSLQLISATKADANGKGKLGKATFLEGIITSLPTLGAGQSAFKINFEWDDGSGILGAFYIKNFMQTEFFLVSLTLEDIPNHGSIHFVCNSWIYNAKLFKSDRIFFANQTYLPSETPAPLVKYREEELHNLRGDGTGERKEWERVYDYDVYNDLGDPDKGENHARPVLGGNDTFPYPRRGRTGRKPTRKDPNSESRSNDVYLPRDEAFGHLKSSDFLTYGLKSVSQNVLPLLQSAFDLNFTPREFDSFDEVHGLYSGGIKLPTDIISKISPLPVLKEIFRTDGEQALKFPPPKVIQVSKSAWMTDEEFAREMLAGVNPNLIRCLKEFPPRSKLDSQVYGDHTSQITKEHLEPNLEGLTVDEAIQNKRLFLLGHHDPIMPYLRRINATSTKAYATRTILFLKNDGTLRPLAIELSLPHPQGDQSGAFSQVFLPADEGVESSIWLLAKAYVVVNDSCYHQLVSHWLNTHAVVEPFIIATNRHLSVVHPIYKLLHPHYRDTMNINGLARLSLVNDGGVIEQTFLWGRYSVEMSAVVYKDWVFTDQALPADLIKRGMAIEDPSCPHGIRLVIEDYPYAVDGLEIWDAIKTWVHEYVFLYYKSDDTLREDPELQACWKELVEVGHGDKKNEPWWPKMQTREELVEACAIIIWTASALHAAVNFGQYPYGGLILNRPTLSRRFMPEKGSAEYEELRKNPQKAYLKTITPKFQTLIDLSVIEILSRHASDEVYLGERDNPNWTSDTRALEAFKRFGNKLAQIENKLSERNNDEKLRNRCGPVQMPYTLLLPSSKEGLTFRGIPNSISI
Briefly: Soybean lipoxygenase (LOX-3) inhibition. The note with it: after 5 min of incubation; sodium linoleate 100 μM, pH 9.0; read-out: IC50 Value on LOX-3. It is filed as biochemical.
Protocol: The anti-inflammatory effect of the synthesized compounds was initially evaluated in vitro, via their ability to inhibit soybean lipoxygenase (LOX-3).
Lipoxygenase activity was determined using soybean lipoxygenase (250 U/mL) and sodium linoleate (100 μM) as substrate, in Tris–HCl buffer pH 9.0. The test compounds dissolved in methanol were added and the reaction was monitored for 5 min at 28 °C, recording absorbance at 234 nm.

Data set [3] has as its system experimentally induced hyperlipidemic mouse model. Briefly: Tyloxapol (Triton WR 1339)-induced hyperlipidemia. It is filed as in vivo, mice. The conditions noted are these: 84 μmol/kg i.p.; 24 h after tyloxapol. On the procedure:
Acute hyperlipidemia was achieved, i.p., by the administration of tyloxapol (Triton WR 1339). The antihyperlipidemic effect of the tested compounds was evaluated as the decrease in total cholesterol (TC) and triglyceride (TG) levels in plasma 24 h after tyloxapol administration. The results are shown in Figure 4A,B. Compounds 9 and 10 reduced TC levels in plasma by 73% and 50%, respectively, and TG levels by 76% and 41%, respectively.
An aqueous solution of Triton WR 1339 was given, i.p., to mice (400 mg/kg of body weight) and one hour later the test compounds (84 μmol/kg of body weight), dissolved in saline or saline only were administered, i.p. After 24 h, blood was taken from the aorta/heart and used for the determination of plasma total cholesterol (TC) and triglyceride (TG) levels, using commercially available kits. Levels of plasma lipids were determined in duplicate while the values presented were the mean from eight animals (per compound).

The nature of data set [4]: Radical scavenging of DPPH. The note with it: DPPH 200 μM, after incubation for 30 min. On the procedure:
The antioxidant activity of compounds 1–17 was evaluated via their ability to scavenge the free radical DPPH.
Compounds dissolved in absolute methanol at concentrations of 25–400 μM were added to an equal volume of a methanolic solution of DPPH (final concentration 200 μM) at room temperature (22 ± 2 °C). Absorbance (517 nm) was recorded at different time intervals for 1 h and results were expressed as IC50 (μM) for DPPH after incubation for 30 min [3].

As to `CC(C)Cc1ccc(C(C)C(=O)OCc2cc(C(C)(C)C)c(O)c(C(C)(C)C)c2)cc1` (centres unmarked) [Compound 1, 3,5-di-tert-butyl-4-hydroxybenzyl 2-(4-isobutylphenyl)propanoate], the inhibition in vivo at 300 µmol/kg in data set [1] was 26%. Besides, in data set [2], the IC50 was 22 µM.
For `CC(C)Cc1ccc(C(C)COC(=O)c2cc(C(C)(C)C)c(O)c(C(C)(C)C)c2)cc1` (centres unmarked) [Compound 2, 2-(4-isobutylphenyl)propyl 3,5-di-tert-butyl-4-hydroxybenzoate], the inhibition in vivo at 300 µmol/kg in data set [1] was 56%.
`COc1ccc2cc(C(C)COC(=O)c3cc(C(C)(C)C)c(O)c(C(C)(C)C)c3)ccc2c1` (centres unmarked) [Compound 4, 2-(6-methoxynaphthalen-2-yl)propyl 3,5-di-tert-butyl-4-hydroxybenzoate] had a melting point of 154.1 to 155 °C. Moreover, the inhibition in vivo at 300 µmol/kg in data set [1] worked out at 49%. The IC50 in data set [2] was found to be 64 µM.
With `Cc1c(Cl)cccc1Nc1ccccc1C(=O)OCc1cc(C(C)(C)C)c(O)c(C(C)(C)C)c1` [Compound 5, 3,5-di-tert-butyl-4-hydroxybenzyl 2-((3-chloro-2-methylphenyl)amino)benzoate], in data set [1], the inhibition in vivo at 300 µmol/kg came out at 55%. Besides, in data set [2], the IC50 was greater than 200 µM.
`Cc1c(Cl)cccc1Nc1ccccc1COC(=O)c1cc(C(C)(C)C)c(O)c(C(C)(C)C)c1` [Compound 6, 2-((3-chloro-2-methylphenyl)amino)benzyl 3,5-di-tert-butyl-4-hydroxybenzoate] yielded a melting point of 141.1 to 141.8 °C. Moreover, the inhibition in vivo at 300 µmol/kg in data set [1] came to 67%. In addition, the IC50 in data set [2] is greater than 150 µM.
For the compound `CC(C)(C)c1cc(COC(=O)c2ccccc2Nc2cccc(C(F)(F)F)c2)cc(C(C)(C)C)c1O` [Compound 7, 3,5-di-tert-butyl-4-hydroxybenzyl 2-((3-(trifluoromethyl)phenyl)amino)benzoate], the melting point was 87.2 to 88 °C. In data set [1], the inhibition in vivo at 300 µmol/kg was found to be 38% and the “improvement in anti-inflammatory activity” value is 2–2.5 fold. In data set [2], the IC50 worked out at 152 µM.
In the case of `CC(C)(C)c1cc(C(=O)OCc2ccccc2Nc2cccc(C(F)(F)F)c2)cc(C(C)(C)C)c1O` [Compound 8, 2-((3-(trifluoromethyl)phenyl)amino)benzyl 3,5-di-tert-butyl-4-hydroxybenzoate], the melting point is 119.9 to 120.5 °C. Moreover, in data set [1], the inhibition in vivo at 300 µmol/kg stood at 48% and the “improvement in anti-inflammatory activity” value is given as 2–2.5 fold. Moreover, the IC50 in data set [2] amounted to 150 µM.
On to `Cc1cccc(Nc2ccccc2COC(=O)c2cc(C(C)(C)C)c(O)c(C(C)(C)C)c2)c1C` [Compound 10, 2-((2,3-dimethylphenyl)amino)benzyl 3,5-di-tert-butyl-4-hydroxybenzoate], for which the melting point was in the range of 136.3 to 136.9 °C. For the same compound, in data set [3], the “reduction of total cholesterol (TC) levels in plasma” value is 50% and the “reduction of triglyceride (TG) levels in plasma” value was 41%. In data set [1], the inhibition in vivo at 300 µmol/kg was 54%. In addition, the “improvement in edema reduction” value in data set [1] (compared to parent mefenamic acid (i)) is 1.5–2 fold. Moreover, in data set [2], the IC50 was 15 µM.
For `CC(C)(C)c1cc(COC(=O)Cc2ccccc2Nc2c(Cl)cccc2Cl)cc(C(C)(C)C)c1O` [Compound 11, 3,5-di-tert-butyl-4-hydroxybenzyl 2-(2-((2,6-dichlorophenyl)amino)phenyl)acetate], the melting point fell in the range of 149 to 149.7 °C. Besides, the inhibition in vivo at 300 µmol/kg in data set [1] is 40%. Besides, the concentration for half-maximal inhibition (IC50) in data set [2] came to 142 µM.
For `CC(C)(C)c1cc(C(=O)OCCc2ccccc2Nc2c(Cl)cccc2Cl)cc(C(C)(C)C)c1O` [Compound 12, 2-((2,6-dichlorophenyl)amino)phenethyl 3,5-di-tert-butyl-4-hydroxybenzoate], in that order: 147.8 to 149.2 °C, 54% and 122 µM.
With `COc1ccc2c(c1)c(CC(=O)OCc1cc(C(C)(C)C)c(O)c(C(C)(C)C)c1)c(C)n2C(=O)c1ccc(Cl)cc1` [Compound 13, 3,5-di-tert-butyl-4-hydroxybenzyl 2-(1-(4-chlorobenzoyl)-5-methoxy-2-methyl-1H-indol-3-yl)acetate], the melting point lay in the range of 149.3 to 149.9 °C. Further, the inhibition in vivo at 300 µmol/kg in data set [1] is 39%. Also, the 50% inhibitory concentration (IC50) in data set [2] turned out to be 68 µM.
For `Cc1c(C)c2c(c(C)c1O)CCC(C)(C(=O)OCC(C)c1ccc(CC(C)C)cc1)O2` (centres unmarked) [Compound 14, 2-(4-isobutylphenyl)propyl6-hydroxy-2,5,7,8-tetramethylchromane-2-carboxylate], the melting point lay in the range of 69.2 to 70 °C. Moreover, it took 34 µM to reach half-maximal inhibition in data set [4] (IC50). Also, the inhibition in vivo at 300 µmol/kg in data set [1] amounted to 42%. For the same compound, the IC50 in data set [2] is greater than 150 µM.
For `COc1ccc2cc(C(C)COC(=O)C3(C)CCc4c(C)c(O)c(C)c(C)c4O3)ccc2c1` (centres unmarked) [Compound 15, 2-(6-methoxynaphthalen-2-yl)propyl 6-hydroxy-2,5,7,8-tetramethylchromane-2-carboxylate], in data set [4], half-maximal inhibition (IC50) was put at 147 µM. In addition, in data set [3], the “reduction of total cholesterol (TC) levels in plasma” value worked out at 42% and the “reduction of triglyceride (TG) levels in plasma” value turned out to be 65%. The inhibition in vivo at 300 µmol/kg in data set [1] is 55%. In data set [2], the half-inhibitory concentration (IC50) was 9 µM.
In the case of `COc1ccc2c(c1)c(CCOC(=O)C1(C)CCc3c(C)c(O)c(C)c(C)c3O1)c(C)n2C(=O)c1ccc(Cl)cc1` (centres unmarked) [Compound 17, 2-(1-(4-chlorobenzoyl)-5-methoxy-2-methyl-1H-indol-3-yl)ethyl 6-hydroxy-2,5,7,8-tetramethylchromane-2-carboxylate], the IC50 was 76 µM in data set [4] and greater than 150 µM in data set [2]. Further, the inhibition in vivo at 300 µmol/kg in data set [1] turned out to be 45%.
Turning to `CC(C)Cc1ccc(C(C)CO)cc1` (centres unmarked) [b, Ibuprofenol, reference compound], in data set [1], the inhibition in vivo at 300 µmol/kg came to 66%.
Consider `COc1ccc2cc(C(C)CO)ccc2c1` (centres unmarked) [d, 2-(6-methoxynaphthalen-2-yl)propan-1-ol, reference compound], for which the inhibition in vivo at 300 µmol/kg in data set [1] stood at 40%. Besides, the half-maximal inhibitory concentration (IC50) in data set [2] is 29 µM.
Take `Cc1c(Cl)cccc1Nc1ccccc1CO` [f, (2-((3-chloro-2-methylphenyl)amino)phenyl)methanol]: the melting point fell in the range of 48.4 to 48.7 °C. In data set [1], the inhibition in vivo at 300 µmol/kg worked out at 43%.
Turning to `OCc1ccccc1Nc1cccc(C(F)(F)F)c1` [h, (2-((3-(trifluoromethyl)phenyl)amino)phenyl)methanol, reference compound], the inhibition in vivo at 300 µmol/kg in data set [1] came to 22%.
Take `Cc1cccc(Nc2ccccc2CO)c1C` [j, (2-((2,3-dimethylphenyl)amino)phenyl)methanol, reference compound]: in data set [1], the inhibition in vivo at 300 µmol/kg was 42%.

In general, IC50 refers to the concentration that inhibits the measured activity by half. By melting point is commonly meant the temperature of the solid-liquid transition.

These data come from publication PMC8399014, “Design of Multifaceted Antioxidants: Shifting towards Anti-Inflammatory and Antihyperlipidemic Activity” (Molecules, 2021).
